Measurements reported in patent publication US7754864B2, “Tyrosinase activity controlling agent, process for producing the same and external preparation containing the same” (National Institute of Advanced Industrial Science and …, priority 2002, dated 2010).

Experiments:
[1] = test system: tyrosinase (derived from mushroom, SIGMA); assay: Tyrosinase inhibitory activity using proline, pyrocatechol as substrate; format: biochemical; conditions: pyrocatechol (catechol) as substrate, absorbance 525 nm
Mouse melanoma B16 cells = assay: Evaluation of melanogenesis inhibitory effect using mouse melanoma cells; format: cell-based; conditions: melanin production per cell, FIG. 4
Method: Mouse melanoma B16 cells (3.6×10^5) were added to a 75 cm^2 culture flask containing 15 ml of D-MEM culture medium supplemented with 10% FCS, and incubated overnight at 37° C. under 5% carbon dioxide gas to adhere the cells. The culture medium was changed to 15 ml of 10% FCS-supplemented D-MEM culture medium containing one of 0.1% DMSO solutions of arbutin or 6-O-(10-undecylenoyl) arbutin obtained in Example 1-1 at various concentrations. The incubation was continued for two more days under the same conditions. The culture medium was again changed to 15 ml of the 0.1% DMSO solution-containing culture medium, and incubation was continued for two more days under the same conditions. After incubation, the cells were recovered, and the wet weight of the cells was measured. After the wet weight measurement, pellets of the cells were suspended in MilliQ water to a total volume of 700 μl. […] The absorbance (405 nm) was then measured. […] The melanin production per cell was indicated as absorbance at 405 nm/cell wet weight (μg). The melanogenesis inhibitory effects of arbutin undecylenate or arbutin at each concentration was determined, with the melanin production per cell without addition of arbutin or arbutin undecylenate being taken as 100%.

[2] = test system: tyrosinase (derived from mushroom, SIGMA); assay: Tyrosinase inhibitory activity using proline, phenol as substrate; format: biochemical; conditions: for tyrosinase inhibitory activity: phenol as substrate, absorbance 525 nm
Method: The tyrosinase inhibitory activity of an undecylenic acid sugar ester was determined using phenol as a substrate, by a modification of the method using pyrocatechol.

[3] = test system: tyrosinase (derived from mushroom, SIGMA); assay: Tyrosinase activation promoting effect, phenol as substrate in the presence of proline; format: biochemical; conditions: FIG. 10
Method: Ascorbic acid and ascorbic acid derivatives were used as test substances for measuring tyrosinase activation promoting effects, using phenol as a substrate in the presence of proline.
Phenol is hydroxylated by tyrosinase, and at that time requires a hydrogen donor. The produced pyrocatechol is oxidized by tyrosinase to form an orthoquinone. The orthoquinone formed is quantitated in the presence of proline, to determine the tyrosinase activity.
Specifically, the measurement was carried out as follows. Forty microliters of 0.749 M L-proline dissolved in 0.1 M phosphate buffer at pH 7.5, 40 μl of 0.037 M phenol, and 1.41 ml of one of test substance solutions at various concentrations were stirred in a cuvette for absorbance measurement. A solution (10 μl) of 350 μg/ml of tyrosinase (derived from mushroom, SIGMA) was added, and the absorbance change was measured with stirring for 15 minutes at 525 nm, to determine the tyrosinase activity. […]

Row | Molecule | tyrosinase inhibitory activity [1] | tyrosinase inhibitory activity [2] | also measured
1 | C=CCCCCCCCCC(=O)OC[C@H]1O[C@@H](Oc2ccc(O)cc2)[C@H](O)[C@@H](O)[C@@H]1O [arbutin undecylenate, 6-O-(10-undecylenoyl)arbutin] | – | – | melanogenesis inhibitory effect relative to arbutin (Mouse melanoma B16 cells): about 100 times
2 | trehalose undecylenic acid ester | inhibition of tyrosinase | tyrosinase was inhibited | –
3 | OC[C@H]1O[C@@H](Oc2ccc(O)cc2)[C@H](O)[C@@H](O)[C@@H]1O [Arbutin] | inhibit tyrosinase activity | inhibit tyrosinase activity | tyrosinase inhibitory activity, phenol substrate compared with catechol substrate ([2]; phenol vs catechol substrate, FIG. 6): higher inhibitory activity against a phenol substrate than against a catechol substrate
4 | Trehalose oleate | – | not inhibit tyrosinase activity | –
5 | O=C1O[C@H]([C@@H](O)CO)C(O)=C1O [ascorbic acid, L-ascorbic acid] | – | – | concentrations exhibiting tyrosinase activity promoting effects [3]: ≤ 10^−4 M
6 | CCCCCCCCCCCCCCCC(=O)OCC(O)C1OC(=O)C(O)=C1O (stereo not shown) [Ascorbic acid palmitic ester, ascorbic acid-6-palmitate] | – | – | concentrations exhibiting tyrosinase activity promoting effects [3]: ≤ 10^−4 M
7 | Sucrose undecylenic acid ester | inhibit tyrosinase activity | inhibit tyrosinase activity | –

Further lines, with some results ahead:

Row | tyrosinase inhibitory activity [1] | Molecule | tyrosinase inhibitory activity [2] | also measured
8 | inhibit tyrosinase activity | C=CCCCCCCCCC(=O)O [Undecylenic acid] | – | –
9 | not inhibit tyrosinase activity | Trehalose diundecylenic acid ester | – | –
